From US20240024273A1, “TOPICAL ADMINISTRATION OF 2-(DIETHYLAMINO)ETHYL 2-(4-ISOBUTYLPHENYL)PROPRIONATE FOR TREATMENT OF DISEASES” (TECHFIELDS PHARMA CO., LTD., priority 2020, published 2024)
Values joined by “and” are separate entries in the source; they are usually repeats but may differ in a detail not shown here. Equal values may be shown once.

How the values were obtained:
[1] = tested on: osteoarthritis of the knee; assay: Second Phase 2 study: WOMAC stiffness subscale score; assay type: in vivo, human
Text: For subjects with bilateral knee pain, both knees will be treated, but the most symptomatic knee (ie, the most painful knee as measured by the Western Ontario and McMaster University Osteoarthritis Index [WOMAC® 3.1] pain subscale score at Screening) will be designated as the target knee for efficacy analyses. For subjects with unilateral knee pain, only the symptomatic (target) knee will be treated.
The VAS version of the WOMAC will be used for the Primary and Secondary Efficacy Endpoints. Efficacy endpoints will be assessed at Screening and Baseline (Day 1) and at the Week 2, Week 4, Week 8, and Week 12/EOS visits.
(§1) 4.9.2. Secondary Efficacy Endpoints: • 1. Change from Baseline in the WOMAC (VAS) pain subscale score for the target knee at 2, 8, and 12 weeks of treatment; • 2. Change from Baseline in the WOMAC (VAS) stiffness subscale scores for the target knee and WOMAC (VAS) functional ability subscale scores at 2, 4, 8, and 12 weeks of treatment; • 3. Change from Baseline in the overall WOMAC (VAS) score at 2, 4, 8, and 12 weeks of treatment; • 4. Subject's global assessment of disease status of the target knee at 2, 4, 8, and 12 weeks of treatment; • 5. Subject's global assessment of response to therapy of the target knee at 2, 4, 8, and 12 weeks of treatment; • 6. Amount of rescue medication (acetaminophen) consumed per day for target knee pain.
The Secondary Efficacy Endpoints, change from Baseline in the WOMAC subscale scores for pain, stiffness, and functional ability, and overall WOMAC score at 2, 4, 8, and 12 weeks of treatment, will be analyzed using the same methods as for the Primary Efficacy Endpoint.

[2] = tested on: osteoarthritis of the knee; assay: Second Phase 2 study: Subject's Global Assessment of Disease Status (SGADS); assay type: in vivo, human
Text: as §1

[3] = 17.5 mg/knee BID, Week 12, first 130 subjects
[4] = 4.375 mg/knee BID (n = 23), first 130 subjects
[5] = 8.75 mg/knee BID (n = 24), first 130 subjects
[6] = 17.5 mg/knee BID (n = 19), first 130 subjects
[7] = Week 12, 4.375 mg/knee BID (n = 23), first 130 subjects
[8] = Week 12, 8.75 mg/knee BID (n = 24), first 130 subjects
[9] = Week 12, 17.5 mg/knee BID (n = 19), first 130 subjects
[10] = all subjects, 4.375 mg/knee BID, n = 49, Week 12
[11] = all subjects, 8.75 mg/knee BID, n = 54, Week 12
[12] = all subjects, 17.5 mg/knee BID, n = 52, Week 12

CCN(CC)CCOC(=O)C(C)c1ccc(CC(C)C)cc1 (stereo not drawn) [2-(diethylamino)ethyl 2-(4-isobutylphenyl)propionate]
WOMAC stiffness, difference from oral ibuprofen [1, 3]: −12.4 mm
WOMAC stiffness, difference from placebo [1, 3]: −19.1 mm
WOMAC Joint Stiffness Subscale Score, Day 1, Avg. ([1]; Avg. of all patients (blinded), Low Dose (2 spray/knee, 8.75 mg/knee) Cohort, Day 1): 64.2
WOMAC Joint Stiffness Subscale Score, Week 2, Avg. ([1]; Avg. of all patients (blinded), Low Dose (2 spray/knee, 8.75 mg/knee) Cohort, Week 2): 52.5
WOMAC Joint Stiffness Subscale Score, Week 4, Avg. ([1]; Avg. of all patients (blinded), Low Dose (2 spray/knee, 8.75 mg/knee) Cohort, Week 4): 45.7
WOMAC Joint Stiffness Subscale Score, Week 8, Avg. ([1]; Avg. of all patients (blinded), Low Dose (2 spray/knee, 8.75 mg/knee) Cohort, Week 8): 42.3
WOMAC Joint Stiffness Subscale Score, Week 12, Avg. ([1]; Avg. of all patients (blinded), Low Dose (2 spray/knee, 8.75 mg/knee) Cohort, Week 12): 41.8
WOMAC Stiffness Subscale Scores, Baseline (LS Mean) [1, 4]: 50.2 mm
WOMAC Stiffness Subscale Scores, Baseline (LS Mean) [1, 5]: 52.4 mm
WOMAC Stiffness Subscale Scores, Baseline (LS Mean) [1, 6]: 57.6 mm
WOMAC Stiffness Subscale Scores, % of improvement from Oral Ibuprofen [1, 7]: 0.6%
WOMAC Stiffness Subscale Scores, % of improvement from Placebo [1, 7]: −9.7%
WOMAC Stiffness Subscale Scores, % of improvement from baseline [1, 7]: −35.9%
WOMAC Stiffness Subscale Scores, Changes from Baseline (LS Mean) [1, 7]: −18.0 mm
WOMAC Stiffness Subscale Scores, Different from placebo (LS Mean) [1, 7]: −4.0 mm
WOMAC Stiffness Subscale Scores, Week 12 (LS Mean) [1, 7]: 32.2 mm
WOMAC Stiffness Subscale Scores, % of improvement from Oral Ibuprofen [1, 8]: −2.4%
WOMAC Stiffness Subscale Scores, % of improvement from Placebo [1, 8]: −12.7%
WOMAC Stiffness Subscale Scores, % of improvement from baseline [1, 8]: −38.9%
WOMAC Stiffness Subscale Scores, Changes from Baseline (LS Mean) [1, 8]: −20.4 mm
WOMAC Stiffness Subscale Scores, Different from oral ibuprofen (LS Mean) [1, 8]: 0.2 mm
WOMAC Stiffness Subscale Scores, Different from placebo (LS Mean) [1, 8]: −6.4 mm
WOMAC Stiffness Subscale Scores, Week 12 (LS Mean) [1, 8]: 32.0 mm
WOMAC Stiffness Subscale Scores, % of improvement from Oral Ibuprofen [1, 9]: −21.0%
WOMAC Stiffness Subscale Scores, % of improvement from Placebo [1, 9]: −31.3%
WOMAC Stiffness Subscale Scores, % of improvement from baseline [1, 9]: −57.5%
WOMAC Stiffness Subscale Scores, Changes from Baseline (LS Mean) [1, 9]: −33.1 mm
WOMAC Stiffness Subscale Scores, Different from oral ibuprofen (LS Mean) [1, 9]: −12.4 mm
WOMAC Stiffness Subscale Scores, Different from placebo (LS Mean) [1, 9]: −19.1 mm
WOMAC Stiffness Subscale Scores, Week 12 (LS Mean) [1, 9]: 24.6 mm
WOMAC Stiffness Subscale Scores, % of improvement from Oral Ibuprofen [1, 10]: 4.7%
WOMAC Stiffness Subscale Scores, % of improvement from Placebo [1, 10]: −2.2%
WOMAC Stiffness Subscale Scores, % of improvement from baseline [1, 10]: −34.6%
WOMAC Stiffness Subscale Scores, Changes from Baseline (LS Mean) [1, 10]: −16.9 mm
WOMAC Stiffness Subscale Scores, Week 12 (LS Mean) [1, 10]: 31.9 mm
WOMAC Stiffness Subscale Scores, % of improvement from Oral Ibuprofen [1, 11]: −2.8%
WOMAC Stiffness Subscale Scores, % of improvement from Placebo [1, 11]: −9.7%
WOMAC Stiffness Subscale Scores, % of improvement from baseline [1, 11]: −42.1%
WOMAC Stiffness Subscale Scores, Changes from Baseline (LS Mean) [1, 11]: −23.3 mm
WOMAC Stiffness Subscale Scores, Different from oral ibuprofen (LS Mean) [1, 11]: −3.0 mm
WOMAC Stiffness Subscale Scores, Different from placebo (LS Mean) [1, 11]: −6.7 mm
WOMAC Stiffness Subscale Scores, Week 12 (LS Mean) [1, 11]: 32.0 mm
WOMAC Stiffness Subscale Scores, % of improvement from Oral Ibuprofen [1, 12]: −8.0%
WOMAC Stiffness Subscale Scores, % of improvement from Placebo [1, 12]: −14.9%
WOMAC Stiffness Subscale Scores, % of improvement from baseline [1, 12]: −47.3%
WOMAC Stiffness Subscale Scores, Changes from Baseline (LS Mean) [1, 12]: −25.2 mm
WOMAC Stiffness Subscale Scores, Different from oral ibuprofen (LS Mean) [1, 12]: −4.9 mm
WOMAC Stiffness Subscale Scores, Different from placebo (LS Mean) [1, 12]: −8.6 mm
WOMAC Stiffness Subscale Scores, Week 12 (LS Mean) [1, 12]: 28.1 mm
WOMAC Joint Stiffness Subscale Score, Week 4 ([1]; individual patient (blinded), Low Dose (2 spray/knee, 8.75 mg/knee) Cohort, Week 4): 59.5 and 62
SGADS, difference from oral ibuprofen [2, 3]: −14.2 mm
SGADS, difference from placebo [2, 3]: −18.6 mm
Subject’s Global Assessment of Disease Status Scores, Baseline (LS Mean) [2, 4]: 64.8 mm
Subject’s Global Assessment of Disease Status Scores, Baseline (LS Mean) [2, 5]: 67.2 mm
Subject’s Global Assessment of Disease Status Scores, Baseline (LS Mean) [2, 6]: 69.3 mm
Subject’s Global Assessment of Disease Status Scores, % of improvement from Oral Ibuprofen [2, 7]: −12.2%
Subject’s Global Assessment of Disease Status Scores, % of improvement from baseline [2, 7]: −50.6%
Subject’s Global Assessment of Disease Status Scores, % of improvement from placebo [2, 7]: −14.2%
Subject’s Global Assessment of Disease Status Scores, Changes from Baseline (LS Mean) [2, 7]: −32.8 mm
Subject’s Global Assessment of Disease Status Scores, Different from oral ibuprofen (LS Mean) [2, 7]: −3.9 mm
Subject’s Global Assessment of Disease Status Scores, Different from placebo (LS Mean) [2, 7]: −8.3 mm
Subject’s Global Assessment of Disease Status Scores, Week 12 (LS Mean) [2, 7]: 32.0 mm
Subject’s Global Assessment of Disease Status Scores, % of improvement from Oral Ibuprofen [2, 8]: −11.8%
Subject’s Global Assessment of Disease Status Scores, % of improvement from baseline [2, 8]: −50.7%
Subject’s Global Assessment of Disease Status Scores, % of improvement from placebo [2, 8]: −14.3%
Subject’s Global Assessment of Disease Status Scores, Changes from Baseline (LS Mean) [2, 8]: −34.1 mm
Subject’s Global Assessment of Disease Status Scores, Different from oral ibuprofen (LS Mean) [2, 8]: −5.2 mm
Subject’s Global Assessment of Disease Status Scores, Different from placebo (LS Mean) [2, 8]: −9.6 mm
Subject’s Global Assessment of Disease Status Scores, Week 12 (LS Mean) [2, 8]: 33.1 mm
Subject’s Global Assessment of Disease Status Scores, % of improvement from Oral Ibuprofen [2, 9]: −23.8%
Subject’s Global Assessment of Disease Status Scores, % of improvement from baseline [2, 9]: −62.2%
Subject’s Global Assessment of Disease Status Scores, % of improvement from placebo [2, 9]: −25.8%
Subject’s Global Assessment of Disease Status Scores, Changes from Baseline (LS Mean) [2, 9]: −43.1 mm
Subject’s Global Assessment of Disease Status Scores, Different from oral ibuprofen (LS Mean) [2, 9]: −14.2 mm
Subject’s Global Assessment of Disease Status Scores, Different from placebo (LS Mean) [2, 9]: −18.6 mm
Subject’s Global Assessment of Disease Status Scores, Week 12 (LS Mean) [2, 9]: 26.2 mm
Subject's Global Assessment of Disease Status Scores, % of improvement from Oral Ibuprofen [2, 10]: −5.3%
Subject's Global Assessment of Disease Status Scores, % of improvement from Placebo [2, 10]: −6.0%
